In one assay the target is T1, Human mPGES-1 (Homo sapiens, UniProt O14684).
T1 construct: host or cells: 293E cells (transient expression; microsomes prepared from cell pellets)
T1 sequence (O14684 1-152): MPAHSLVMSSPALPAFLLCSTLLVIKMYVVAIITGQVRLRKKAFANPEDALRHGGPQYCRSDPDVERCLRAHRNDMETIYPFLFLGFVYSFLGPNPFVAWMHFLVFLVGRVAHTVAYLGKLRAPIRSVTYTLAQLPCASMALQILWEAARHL
Briefly: Human mPGES-1 Enzyme Inhibition Assay. The class given is biochemical. Conditions: microsomes from 293E cells, 1.67 μM PGH2, PGE2 by LC/MS; ±0.00064, n=17. The procedure:
Human mPGES-1 Enzyme Inhibition Assay
Human mPGES-1 (Invitrogen™ (Cat#97002RG, clone ID 6374722)) is subcloned into pcDNA3.1 and transiently expressed in 293E cells. Microsomes are prepared from cell pellets based on published methods (Oullet et al., Purification and characterization of recombinant microsomal prostaglandin E synthase-1, Protein Expression and Purification, 26 pp 489-495 (2002); and Thoren et al., Human Microsomal Prostanglandin E Synthase-1, J. Biol Chem. 278(25) pp 22199-22209 (2003)). Briefly, pellets are brought up in homogenization buffer (15 mM Tris-HCl, pH 8.0; 0.25 M sucrose; 0.1 mM EDTA; 1 mM glutathione) and sonicated 5×30 seconds on ice. Homogenate is centrifuged at 5,000×g for 10 minutes at 4° C. The supernatant fraction is decanted and loaded into Beckman Quick-Seal® tubes and centrifuged at 150,000×g. for 90 minutes at 4° C. The supernatant fraction is discarded by decantation and the pellets are re-suspended in assay buffer (10 mM sodium phosphate, pH 7.0; 10% glycerol; 2.5 mM glutathione; Complete Protease Inhibitor Cocktail (Roche)). Protein concentration is determined using the Pierce Coomassie Plus™ reagent.
For the enzyme assay, the microsomes are diluted into assay buffer and 14 μL/well of the resulting solution is added to 384 well assay plates. […]

For assay [1], the system named is PGE2 formation in human epithelial lung carcinoma cell line A549. Briefly: Cell Based Assay for Measuring Eicosanoid Selectivity (rhIL-1β induced PGE2 in A549 cells). The following applies: 0.1 ng/mL rhIL-1β, approximately 18 hours, EIA, ±0.00301, n=2, read-out: IC50 for inhibition of PGE2 formation. The procedure:
Cell Based Assay for Measuring Eicosanoid Selectivity
Human epithelial lung carcinoma cell line A549 is obtained from ATCC (CCL-185) and maintained in Kaighn's F12 cell culture medium+10% fetal bovine serum (FBS) (plating medium) under standard 5% CO2 humidified atmosphere at 37° C. The cells are passaged at 1:3 twice per week.
For the assays, cells are released from flasks by washing once with PBS, then once with Trypsin/EDTA. After 3-5 minutes at 37° C., the cells are suspended in plating medium and centrifuged at 2,000 rpm, 25° C., for 5 minutes. The supernatant is aspirated and the cell pellet is resuspended in F12K plating medium. The cell number is determined by counting an aliquot of cells which has been diluted in PBS and Trypan blue on a hemocytometer. Cells are plated at 40,000/well in 96 well Falcon plates 24 hours prior to treatment. Compounds are diluted in DMSO to 100× of the final concentration in Screen Mates tubes. The medium is removed from the cells and fresh medium (90 μL/well) is added to the cells. The compounds are added at 1 μL/well, n=2, to give seven concentrations each. Cells are pretreated with compounds for 30 minutes at 37° C., 5% CO2. […] After approximately 90-120 minutes at room temperature on an orbital shaker at 100 rpm, the plates are read at A412 on a plate reader. […]

The test system of assay [2] is PGE2 formation in human whole blood. The assay is described as follows: Human Whole Blood Assay (LPS induced PGE2). In kind it is cell-based. The following applies: 100 μg/mL LPS, 20-24 hours, LC/MS/MS, n=11, read-out: IC50 for inhibition of PGE2 formation in human whole blood. The procedure: Blood is collected from normal volunteer donors into sodium heparin VACUTAINER tubes. Donors are selected, in part, on their confirmation that they have not taken NSAIDs, aspirin, Celebrex®, or glucocorticoids within two weeks of the donation. All tubes/donor are pooled into 250 mL Corning conical centrifuge tubes and 436.5 μL/well is distributed into deep well polypropylene plates. Compounds are diluted in DMSO to 100× final and 4.5 μL/well in duplicate or triplicate is added to give 7 point curves. […] One hundred microliters is quantitatively transferred to Costar cluster tubes blocks and 400 μL/well of the MeOH stop reagent and internal standards, d4-PGE2, d4-PGF2α, and d4-TXA2β are added. […]
Solid phase extraction is performed using Waters HLB 30 mg/bed 96 well plates on a vacuum manifold: Step 1, the matrix is washed with MeOH (1 mL), followed by 0.1% formic acid in water (1 mL); Step 2, 400 μL sample is applied along with 0.1% formic acid in water (900 μL) and allowed to bind for 5 minutes; Step 3, the matrix is washed with 0.1% formic acid in water (600 μL), followed by 80/20 water/MeOH (600 μL); Step 4, the products are eluted with 2-500 μL volumes of EtOAc; Step 5 the samples are dried under nitrogen and reconstituted in 75/25 water/acetonitrile with 0.1% formic acid (50 μL). The products are analyzed by LC/MS/MS.

The structures appear in SMILES notation.

As usually defined, the IC50 is the midpoint of a concentration-inhibition curve.

Regarding `Cc1cccc2ccc(N3CC[C@H](C(=O)N[C@H]4CCO[C@H](CO)C4)C(C)(C)C3)nc12` [Example 1, (S)-N-((2S,4S)-2-(Hydroxymethyl)tetrahydro-2H-pyran-4-yl)-3,3-dimethyl-1-(8-methylquinolin-2-yl)piperidine-4-carboxamide], the IC50 at Human mPGES-1 was found to be 1.93 nM; in assay [1], 4.71 nM; in assay [2] it was 2.05 ± 0.82 nM.

These data come from US9962375B2, “Methyl-piperidine compounds useful for inhibiting microsomal prostaglandin E2 synthase-1” (Eli Lilly and Company, priority 2014, dated 2018).
